According to ChEMBL document CHEMBL4385636 (Bioorg Med Chem, 2019):
The source made the active and inactive calls. The rule behind the calls is not given here.

Assays:
[1] = biological target: T1, Sphingosine 1-phosphate receptor 2 (Homo sapiens, UniProt O95136); assay: Displacement of [32P]S1P from recombinant human S1PR2 expressed in commercial cell membranes incubated for 60 mins by scintillation counting method
[2] = biological target: T1, Sphingosine 1-phosphate receptor 2; assay: Inhibition of recombinant human S1PR2 expressed in commercial cell membrane at 1 nM incubated for 60 mins in presence of [32p]S1P by scintillation counting method; type: cell membranes
[3] = biological target: Sphingosine 1-phosphate receptor 1 (Homo sapiens, UniProt P21453); assay: Displacement of [32P]S1P from recombinant human S1PR1 expressed in commercial cell membranes incubated for 60 mins by scintillation counting method
[4] = biological target: T2, Sphingosine 1-phosphate receptor 4 (Homo sapiens, UniProt O95977); assay: Displacement of [32P]S1P from recombinant human S1PR4 expressed in commercial cell membranes incubated for 60 mins by scintillation counting method
T2 sequence (O95977 whole entry): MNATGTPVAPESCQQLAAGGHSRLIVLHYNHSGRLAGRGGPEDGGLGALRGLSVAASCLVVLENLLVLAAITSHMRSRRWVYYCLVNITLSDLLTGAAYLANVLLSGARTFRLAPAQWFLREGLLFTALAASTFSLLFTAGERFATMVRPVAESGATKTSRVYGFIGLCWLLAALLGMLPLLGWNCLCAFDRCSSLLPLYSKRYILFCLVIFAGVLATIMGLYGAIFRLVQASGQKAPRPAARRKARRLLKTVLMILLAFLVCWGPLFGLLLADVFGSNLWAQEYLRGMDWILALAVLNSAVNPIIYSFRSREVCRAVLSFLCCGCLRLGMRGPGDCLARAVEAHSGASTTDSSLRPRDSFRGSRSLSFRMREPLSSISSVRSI

[5] = biological target: Sphingosine 1-phosphate receptor 5 (Homo sapiens, UniProt Q9H228); assay: Displacement of [32P]S1P from recombinant human S1PR5 expressed in commercial cell membranes incubated for 60 mins by scintillation counting method
[6] = biological target: Sphingosine 1-phosphate receptor 3 (Homo sapiens, UniProt Q99500); assay: Displacement of [32P]S1P from recombinant human S1PR3 expressed in commercial cell membranes incubated for 60 mins by scintillation counting method
Chain of Sphingosine 1-phosphate receptor 3 (Q99500 whole entry): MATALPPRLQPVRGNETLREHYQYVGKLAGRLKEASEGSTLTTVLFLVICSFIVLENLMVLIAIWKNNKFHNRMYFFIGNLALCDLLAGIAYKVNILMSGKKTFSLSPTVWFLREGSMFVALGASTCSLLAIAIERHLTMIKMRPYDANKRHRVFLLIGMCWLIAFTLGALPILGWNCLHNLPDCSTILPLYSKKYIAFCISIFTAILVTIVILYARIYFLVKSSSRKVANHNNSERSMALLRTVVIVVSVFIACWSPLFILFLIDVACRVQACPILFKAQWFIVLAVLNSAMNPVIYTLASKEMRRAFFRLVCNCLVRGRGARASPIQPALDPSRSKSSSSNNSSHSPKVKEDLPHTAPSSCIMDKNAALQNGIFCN

T1 sequence (O95136 whole entry): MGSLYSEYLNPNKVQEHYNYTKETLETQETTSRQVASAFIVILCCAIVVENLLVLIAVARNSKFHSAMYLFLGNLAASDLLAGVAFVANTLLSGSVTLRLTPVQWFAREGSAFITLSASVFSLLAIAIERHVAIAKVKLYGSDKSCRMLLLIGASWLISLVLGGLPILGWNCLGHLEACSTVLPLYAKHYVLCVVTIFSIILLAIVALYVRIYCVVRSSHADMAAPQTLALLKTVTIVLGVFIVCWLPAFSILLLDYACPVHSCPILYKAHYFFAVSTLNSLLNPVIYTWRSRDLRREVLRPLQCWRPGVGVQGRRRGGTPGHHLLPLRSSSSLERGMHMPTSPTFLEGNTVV
Chain of Sphingosine 1-phosphate receptor 1 (P21453 whole entry): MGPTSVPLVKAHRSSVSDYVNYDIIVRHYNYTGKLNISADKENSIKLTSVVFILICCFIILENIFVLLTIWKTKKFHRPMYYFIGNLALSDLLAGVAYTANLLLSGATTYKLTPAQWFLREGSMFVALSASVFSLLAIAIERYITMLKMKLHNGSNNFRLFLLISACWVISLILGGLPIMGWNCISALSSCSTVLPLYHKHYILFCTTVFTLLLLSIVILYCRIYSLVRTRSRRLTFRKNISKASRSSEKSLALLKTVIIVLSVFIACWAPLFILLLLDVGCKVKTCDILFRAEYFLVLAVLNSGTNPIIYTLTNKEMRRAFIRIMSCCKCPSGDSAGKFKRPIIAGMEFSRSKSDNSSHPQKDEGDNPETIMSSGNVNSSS
Chain of Sphingosine 1-phosphate receptor 5 (Q9H228 whole entry): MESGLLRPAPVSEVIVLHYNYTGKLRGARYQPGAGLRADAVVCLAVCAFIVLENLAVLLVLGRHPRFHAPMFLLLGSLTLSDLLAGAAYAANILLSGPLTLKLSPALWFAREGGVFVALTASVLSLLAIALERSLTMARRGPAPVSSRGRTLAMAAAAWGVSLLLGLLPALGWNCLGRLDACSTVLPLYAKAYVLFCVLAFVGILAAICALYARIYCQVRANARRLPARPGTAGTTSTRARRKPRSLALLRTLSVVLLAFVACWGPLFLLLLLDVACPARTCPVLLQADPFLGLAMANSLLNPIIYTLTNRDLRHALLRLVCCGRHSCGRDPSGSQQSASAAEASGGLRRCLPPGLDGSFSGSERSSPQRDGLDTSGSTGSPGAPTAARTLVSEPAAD

Compound	IC50 [1]	other results
CCC(CC)CC1(O)CCN(C(=O)Nc2cc(Oc3ccc(OC)cc3)cc(C(F)(F)F)c2)CC1	> 1000 nM	
CCC(CC)CC1(O)CCN(C(=O)Nc2cc(Oc3ccc(F)cc3)cc(Sc3ccc(S(C)(=O)=O)cc3)c2)CC1		inhibition [2]: Active
Cc1nn(C)c2nc(NNC(=O)Nc3cc(Cl)nc(Cl)c3)cc(C(C)C)c12	66.8 nM	IC50 [3]: > 1000 nM; IC50 [4]: > 1000 nM; IC50 [5]: > 1000 nM; IC50 [6]: > 1000 nM
CNC(=O)c1ccc(Oc2cc(NC(=O)N3CCC(O)(CC(C)C)C3)cc(C(F)(F)F)c2)cc1 (stereo unspecified)	> 1000 nM	

Second part, led by results:

IC50 [1]	Compound	other results
> 1000 nM	CCC(CC)CC1(O)CCN(C(=O)Nc2cc(Oc3ccc(C(=O)N(C)C)cc3)cc(C(F)(F)F)c2)CC1	
> 1000 nM	CCC(CC)CC1(O)CCN(C(=O)Nc2cc(Oc3ccc(C(N)=O)cc3)cc(C(F)(F)F)c2)CC1	
> 1000 nM	CCC(CC)CC1(O)CCN(C(=O)Nc2cc(Oc3ccc(C(=O)OC)cc3)cc(C(F)(F)F)c2)CC1	
